Where “and” joins values, the source holds several entries; their conditions need not be identical. Equal entries are not always repeated. Starred links: 1 amine or outer side, 2 acyl side, 3 side chain; linkers in the order of their positions; H or OH if unused. Positions of bridges follow the written chain, without caps; N, C: chain ends. Non-standard residues stand in square brackets, D forms with d. Residues, ends and D or L forms follow the SMILES beside them. *: point of attachment. Orn(4R-OH,5R-OCH2CH2NMe3+) = C[N+](C)(C)CCO[C@@H](N[*:3])[C@H](O)C[C@H](N[*:1])C(=O)[*:2]; pTerphenylCO(4''-OnC5H11) = CCCCCOc1ccc(-c2ccc(-c3ccc(C(=O)*)cc3)cc2)cc1; hTyr(3S-OH,4S-OH) = N[C@H](C(=O)O)[C@H](O)[C@@H](O)c1ccc(O)cc1; Pro(3S-OH,4S-Me) = C[C@H]1CN[C@H](C(=O)O)[C@H]1O; Hyp = O=C(O)[C@@H]1C[C@@H](O)CN1
What was measured:
[1] = test system: azole-resistant Candida albicans R357 strain; assay: microbe, parasite or virus in culture; format: cell-based; conditions: Candida albicans
[2] = test system: C. parapsilosis CP02; format: cell-based, Candida parapsilosis
Method: (§1) Spontaneous mutant selection. […] Three individual colonies from each strain were used to start cultures in RPMI. […] One milliliter aliquots were spread onto SDA plates containing drug with sterile glass beads. Starting viable count was enumerated by triplicate plating of serial dilutions of the starting inoculum. […] Glycerol stocks of putative mutant colonies were stored at −80° C. […] Spontaneous mutation frequencies were calculated by dividing the number of resistant colonies on a given plate by the starting inoculum plated. A subset of mutants (weighted heavily towards those selected with CMP1) were then evaluated by MIC and sequencing of FKS gene hot spot regions.

[3] = test system: C. krusei ATCC 6258; format: cell-based, Candida krusei
Method: as §1

[4] = test system: C. glabrata vaginal isolates; assay: Susceptibility testing of VVC clinical isolates at pH 7 and 4 (CLSI M27-A3); format: cell-based, Candida glabrata; conditions: for MIC90: Nakaseomyces glabratus
[5] = test system: C. tropicalis vaginal isolates; assay: as above; format: cell-based; conditions: Candida tropicalis
[6] = test system: Candida albicans; assay: Broth microdilution of invasive fungal isolates (CLSI M27-A3/M38-A2); format: cell-based
[7] = test system: Candida glabrata; assay: microbe, parasite or virus in culture; format: cell-based
[8] = test system: Candida parapsilosis; assay: Broth microdilution of invasive fungal isolates (CLSI M27-A3/M38-A2); format: cell-based; conditions: 92 isolates
[9] = SDA, minimum concentration to cleanly inhibit growth
[10] = replicate plates 1-3, listed as CMP1

In the case of `CCCCCOc1ccc(-c2ccc(-c3ccc(C(=O)N[C@H]4C[C@@H](O)[C@@H](OCC[N+](C)(C)C)NC(=O)[C@@H]5[C@@H](O)[C@@H](C)CN5C(=O)[C@H]([C@@H](C)O)NC(=O)[C@H]([C@H](O)[C@@H](O)c5ccc(O)cc5)NC(=O)[C@@H]5C[C@@H](O)CN5C(=O)[C@H]([C@@H](C)O)NC4=O)cc3)cc2)cc1` [Compound 1] ({pTerphenylCO(4''-OnC5H11)}-[Orn(4R-OH,5R-OCH2CH2NMe3+)]T[Hyp][hTyr(3S-OH,4S-OH)]T[Pro(3S-OH,4S-Me)]; lactam 1-C), the MIC [1] was 0.125 µg/mL, the Median mutation frequency [2] was 2.08E−08 and the Plate concentration [2, 9] was 8 µg/mL. The “Freq. (replicate mutation frequency)” value [2, 10] was 2.08E−08 (2×) and 9.62E−09, the Median mutation frequency [3] was 3.86E−09 and the Plate concentration [3, 9] was 0.25 µg/mL. For the same compound, the “Freq. (replicate mutation frequency)” value [3, 10] was 1.54E−08 and 3.51E−09 and 3.86E−09, the “Number of isolates at MIC 0.125 μg/mL” value ([4]; 21 VVC isolates, 24 h, pH 4) was 2 and the “Number of isolates at MIC 0.25 μg/mL” value ([4]; 21 VVC isolates, 24 h, pH 4) was 3. For the same compound, the “Number of isolates at MIC 0.5 μg/mL” value ([4]; 21 VVC isolates, 24 h, pH 4) was 15, the “Number of isolates at MIC 2 μg/mL” value ([4]; 21 VVC isolates, 24 h, pH 4) was 1 and the “Number of isolates at MIC 0.06 μg/mL” value ([4]; 21 VVC isolates, 24 h, pH 7) was 3. The “Number of isolates at MIC 0.125 μg/mL” value ([4]; 21 VVC isolates, 24 h, pH 7) was 17, the “Number of isolates at MIC 2 μg/mL” value ([4]; 21 VVC isolates, 24 h, pH 7) was 1 and the “Number of isolates at MIC 0.25 μg/mL” value ([4]; 21 VVC isolates, 48 h, pH 4) was 2. For the same compound, the “Number of isolates at MIC 0.5 μg/mL” value ([4]; 21 VVC isolates, 48 h, pH 4) was 8, the “Number of isolates at MIC 1 μg/mL” value ([4]; 21 VVC isolates, 48 h, pH 4) was 9 and the “Number of isolates at MIC 2 μg/mL” value ([4]; 21 VVC isolates, 48 h, pH 4) was 2. For the same compound, the “Number of isolates at MIC 0.06 μg/mL” value ([4]; 21 VVC isolates, 48 h, pH 7) was 2, the “Number of isolates at MIC 0.125 μg/mL” value ([4]; 21 VVC isolates, 48 h, pH 7) was 16 and the “Number of isolates at MIC 0.25 μg/mL” value ([4]; 21 VVC isolates, 48 h, pH 7) was 1. For the same compound, the “Number of isolates at MIC 0.5 μg/mL” value ([4]; 21 VVC isolates, 48 h, pH 7) was 1, the “Number of isolates at MIC 2 μg/mL” value ([4]; 21 VVC isolates, 48 h, pH 7) was 1 and the MIC90 ([4]; 24 h, pH 4) was 0.5 µg/mL. It also gave an MIC90 ([4]; 24 h, pH 7) of 0.125 µg/mL, an MIC90 ([4]; 48 h, pH 4) of 1 µg/mL and an MIC90 ([4]; 48 h, pH 7) of 0.25 µg/mL. The MIC90 ([5]; 24 h, pH 4) was 0.5 µg/mL, the MIC90 ([5]; 24 h, pH 7) was 0.125 µg/mL and the MIC90 ([5]; 48 h, pH 4) was 2 µg/mL. For the same compound, the MIC90 ([5]; 48 h, pH 7) was 0.125 µg/mL, the “Cumulative % of isolates inhibited at MIC 0.015 μg/mL” value ([6]; 251 isolates) was “(49.4) %” and the “Cumulative % of isolates inhibited at MIC 0.03 μg/mL” value ([6]; 251 isolates) was “(85.7) %”. For the same compound, the “Cumulative % of isolates inhibited at MIC 0.06 μg/mL” value ([6]; 251 isolates) was “(96.8) %”, the “Cumulative % of isolates inhibited at MIC 0.12 μg/mL” value ([6]; 251 isolates) was “(100.0) %” and the “Cumulative % of isolates inhibited at MIC ≤0.008 μg/mL” value ([6]; 251 isolates) was “(6.8) %”. For the same compound, the “Number of isolates inhibited at MIC 0.015 μg/mL” value ([6]; 251 isolates) was 107, the “Number of isolates inhibited at MIC 0.03 μg/mL” value ([6]; 251 isolates) was 91 and the “Number of isolates inhibited at MIC 0.06 μg/mL” value ([6]; 251 isolates) was 28. For the same compound, the “Number of isolates inhibited at MIC 0.12 μg/mL” value ([6]; 251 isolates) was 8, the “Number of isolates inhibited at MIC ≤0.008 μg/mL” value ([6]; 251 isolates) was 17 and the MIC50 ([6]; Candida albicans, 251 isolates, read-out: MIC50) was 0.03 µg/mL. For the same compound, the MIC90 ([6]; Candida albicans, 251 isolates, read-out: MIC90) was 0.06 µg/mL, the “concentration at which all isolates were inhibited” value ([6]; all 251 isolates) was no more than 0.12 µg/mL and the “Cumulative % of isolates inhibited at MIC 0.015 μg/mL” value [7] was “(3.0) %”. For the same compound, the “Cumulative % of isolates inhibited at MIC 0.03 μg/mL” value [7] was “(62.0) %”, the “Cumulative % of isolates inhibited at MIC 0.06 μg/mL” value [7] was “(91.0) %” and the “Cumulative % of isolates inhibited at MIC 0.25 μg/mL” value [7] was “(95.0) %”. The “Cumulative % of isolates inhibited at MIC 0.5 μg/mL” value [7] was “(95.0) %”, the “Cumulative % of isolates inhibited at MIC 1 μg/mL” value [7] was “(96.0) %” and the “Cumulative % of isolates inhibited at MIC 2 μg/mL” value [7] was “(99.0) %”. For the same compound, the “Cumulative % of isolates inhibited at MIC 4 μg/mL” value [7] was “(100.0) %”, the “Number of isolates inhibited at MIC 0.015 μg/mL” value [7] was 3 and the “Number of isolates inhibited at MIC 0.03 μg/mL” value [7] was 59. For the same compound, the “Number of isolates inhibited at MIC 0.06 μg/mL” value [7] was 29, the “Number of isolates inhibited at MIC 0.12 μg/mL” value [7] was 4 and the “Number of isolates inhibited at MIC 0.25 μg/mL” value [7] was 0. The “Number of isolates inhibited at MIC 0.5 μg/mL” value [7] was 0, the “Number of isolates inhibited at MIC 1 μg/mL” value [7] was 1 and the “Number of isolates inhibited at MIC 2 μg/mL” value [7] was 3. The “Number of isolates inhibited at MIC 4 μg/mL” value [7] was 1, the MIC50 ([7]; Nakaseomyces glabratus, read-out: MIC50) was 0.03 µg/mL and the MIC90 ([7]; Nakaseomyces glabratus, read-out: MIC90) was 0.06 µg/mL. For the same compound, the MIC ([7]; Nakaseomyces glabratus, read-out: MIC results) was 2 to 4 µg/mL, the “Cumulative % of isolates inhibited at MIC 0.5 μg/mL” value [8] was “(23.9) %” and the “Cumulative % of isolates inhibited at MIC 1 μg/mL” value [8] was “(62.0) %”.

— patent publication US20180256673A1, “METHODS FOR TREATING FUNGAL INFECTIONS” (priority 2015, published 2018)
